According to ChEMBL document CHEMBL4229457, “Mechanism underlying inhibitory effect of six dicaffeoylquinic acid isomers on melanogenesis and the computational molecular modeling studies” (Bioorg Med Chem, 2018):
Calls of active or inactive are those of the source. The rule behind the calls is not given here.

Tests used:
[1] = tested on: B16-F1; test: Cytotoxicity against mouse B16-F1 cells assessed as reduction in cell viability at 25 uM after 72 hrs by MTT assay; type: cell-based; settings: b16-f1, 72 h
[2] = tested on: B16-F1; test: Inhibition of alpha-MSH-stimulated melanogenesis in mouse B16-F1 cells assessed as reduction in intracellular melanin production at 25 uM after 72 hrs relative to control; type: functional; settings: B16-F1, 72 h
[3] = tested on: B16-F1; test: Inhibition of adenylate cyclase in alpha-MSH-stimulated mouse B16-F1 cells assessed as reduction in cAMP-CREB signaling pathway-mediated TYR expression level at 25 uM after 48 to 72 hrs by Western blot analysis; type: cell-based
[4] = tested on: B16-F1; test: Inhibition of adenylate cyclase in alpha-MSH-stimulated mouse B16-F1 cells assessed as reduction in cAMP-CREB signaling pathway-mediated DCT expression level at 25 uM after 48 to 72 hrs by Western blot analysis; type: cell-based
[5] = biological target: T1, Tyrosinase (Mus musculus) (UniProt P11344); settings: at 25 µM
T1 sequence (whole entry): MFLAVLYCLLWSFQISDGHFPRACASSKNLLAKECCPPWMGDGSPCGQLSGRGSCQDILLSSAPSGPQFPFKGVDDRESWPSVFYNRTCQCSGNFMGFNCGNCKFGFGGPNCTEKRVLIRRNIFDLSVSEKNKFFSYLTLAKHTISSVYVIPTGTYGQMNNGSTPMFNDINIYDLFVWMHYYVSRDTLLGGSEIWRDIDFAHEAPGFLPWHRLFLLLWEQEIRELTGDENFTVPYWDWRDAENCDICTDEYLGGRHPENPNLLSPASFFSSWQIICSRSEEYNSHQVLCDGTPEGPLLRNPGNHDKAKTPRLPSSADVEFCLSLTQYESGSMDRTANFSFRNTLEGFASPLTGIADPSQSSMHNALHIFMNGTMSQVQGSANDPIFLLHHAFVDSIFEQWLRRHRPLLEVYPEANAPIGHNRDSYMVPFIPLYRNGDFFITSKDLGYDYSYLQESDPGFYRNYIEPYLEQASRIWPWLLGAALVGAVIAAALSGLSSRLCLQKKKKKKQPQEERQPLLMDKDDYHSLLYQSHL
Description: Inhibition of tyrosinase in mouse B16-F1 cell lysates assessed as reduction in melanin production at 25 uM using L-DOPA as substrate incubated for 30 mins followed by substrate addition measured after 30 mins

[6] = Inhibition of melanogenesis in HEMn assessed as reduction in intracellular melanin production at 1 uM after 72 hrs relative to control; type: functional; settings: Homo sapiens
[7] = tested on: B16-F1; test: Inhibition of adenylate cyclase in alpha-MSH-stimulated mouse B16-F1 cells assessed as reduction in cAMP-CREB signaling pathway-mediated TRP1 expression level at 25 uM after 48 to 72 hrs by Western blot analysis; type: cell-based
[8] = tested on: B16-F1; test: Inhibition of adenylate cyclase in alpha-MSH-stimulated mouse B16-F1 cells assessed as reduction in cAMP-CREB signaling pathway-mediated MITF expression level at 25 uM after 48 to 72 hrs by Western blot analysis; type: cell-based
[9] = tested on: B16-F1; test: Inhibition of adenylate cyclase in alpha-MSH-stimulated mouse B16-F1 cells assessed as reduction in CREB phosphorylation at 25 uM measured up to 360 mins by Western blot analysis; type: cell-based
[10] = species on record: Mus musculus; test: Inhibition of adenylate cyclase in mouse B16-F1 cell lysates assessed as reduction in forskolin-induced cAMP levels incubated for 6 hrs followed by forskolin stimulation measured after 30 mins by immuno assay
[11] = species on record: Mus musculus; test: Inhibition of adenylate cyclase in mouse B16-F1 cell lysates assessed as reduction in alpha-MSH-induced cAMP levels incubated for 6 hrs followed by forskolin stimulation measured after 30 mins by immuno assay
[12] = tested on: B16-F1; test: Downregulation of adenylate cyclase protein expression level in alpha-MSH-stimulated mouse B16-F1 cells at 25 uM by Western blot analysis; type: functional, cell-based
[13] = Inhibition of melanogenesis in HEMn assessed as reduction in intracellular melanin production at 5 uM after 72 hrs relative to control; type: functional; settings: Homo sapiens
[14] = Inhibition of melanogenesis in HEMn assessed as reduction in intracellular melanin production at 10 uM after 72 hrs relative to control; type: functional; settings: Homo sapiens
[15] = Inhibition of melanogenesis in HEMn assessed as reduction in intracellular melanin production at 25 uM after 72 hrs relative to control; type: functional; settings: Homo sapiens
[16] = biological target: T2, Tyrosinase (Homo sapiens) (UniProt P14679); test: Inhibition of tyrosinase in HEMn lysates assessed as reduction in melanin production using L-DOPA as substrate incubated for 30 mins followed by substrate addition measured after 30 mins
T2 sequence (whole entry): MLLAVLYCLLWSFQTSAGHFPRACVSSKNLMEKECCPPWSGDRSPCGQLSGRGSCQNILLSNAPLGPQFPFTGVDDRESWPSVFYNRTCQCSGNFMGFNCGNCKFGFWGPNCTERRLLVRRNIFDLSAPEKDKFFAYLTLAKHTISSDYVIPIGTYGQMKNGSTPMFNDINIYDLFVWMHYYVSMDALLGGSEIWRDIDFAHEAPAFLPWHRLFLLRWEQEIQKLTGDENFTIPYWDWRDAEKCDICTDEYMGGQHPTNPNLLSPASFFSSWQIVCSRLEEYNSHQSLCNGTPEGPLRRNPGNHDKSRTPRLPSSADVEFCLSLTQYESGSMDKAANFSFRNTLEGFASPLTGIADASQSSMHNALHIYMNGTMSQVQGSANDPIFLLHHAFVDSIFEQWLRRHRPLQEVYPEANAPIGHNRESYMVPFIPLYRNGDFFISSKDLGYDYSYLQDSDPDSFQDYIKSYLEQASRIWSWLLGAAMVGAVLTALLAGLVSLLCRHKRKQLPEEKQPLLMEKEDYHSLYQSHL

| Compound | Activity [1] | inhibition at 25 µM [2] | inhibition [3] | inhibition [4] | inhibition [5] | inhibition at 1 µM [6] | inhibition [7] | inhibition [8] | inhibition [9] | inhibition [10] | inhibition [11] | Activity [12] | inhibition at 5 µM [13] | inhibition at 10 µM [14] | inhibition at 25 µM [15] | inhibition [16] |
| --- | --- | --- | --- | --- | --- | --- | --- | --- | --- | --- | --- | --- | --- | --- | --- | --- |
| O=C(/C=C/c1ccc(O)c(O)c1)O[C@@H]1[C@H](O)C[C@@](O)(C(=O)O)C[C@H]1OC(=O)/C=C/c1ccc(O)c(O)c1 | Non-Toxic | 26% | Active | Active | > 20% | – | – | – | – | – | – | – | – | – | – | – |
| O=C(/C=C/c1ccc(O)c(O)c1)O[C@H]1[C@H](O)C[C@@](O)(C(=O)O)C[C@H]1OC(=O)/C=C/c1ccc(O)c(O)c1 | Non-Toxic | 84% | Active | Active | > 20% | 7.7% | Active | 91% | Active | Dose-dependent effect | Dose-dependent effect | inactive | 11.2% | 25.8% | 51.2% | Dose-dependent effect |
| O=C(/C=C/c1ccc(O)c(O)c1)O[C@@H]1C[C@](O)(C(=O)O)C[C@@H](OC(=O)/C=C/c2ccc(O)c(O)c2)[C@H]1O | Non-Toxic | 26% | Active | Active | > 20% | – | Active | Active | – | – | – | – | – | – | – | – |
| OC[C@H]1O[C@@H](Oc2ccc(O)cc2)[C@H](O)[C@@H](O)[C@@H]1O [ARBUTIN] | – | 34% | – | – | Active | – | – | – | – | – | – | – | – | – | – | – |
| O=C(/C=C/c1ccc(O)c(O)c1)O[C@H]1C[C@@](OC(=O)/C=C/c2ccc(O)c(O)c2)(C(=O)O)C[C@H](O)[C@@H]1O | Non-Toxic | 26% | 66% | Active | > 20% | – | – | – | – | – | – | – | – | – | – | – |
| O=C(/C=C/c1ccc(O)c(O)c1)OC1[C@H](O)CC(OC(=O)/C=C/c2ccc(O)c(O)c2)(C(=O)O)C[C@@H]1O (stereo not given in full) | Non-Toxic | 18% | 92% | Active | > 20% | – | – | – | – | – | – | – | – | – | – | – |
| O=C(/C=C/c1ccc(O)c(O)c1)O[C@@H]1C[C@@](OC(=O)/C=C/c2ccc(O)c(O)c2)(C(=O)O)C[C@@H](O)[C@@H]1O [CYNARIN] | Non-Toxic | 61% | 72% | Active | > 20% | – | – | – | – | – | – | – | – | – | – | – |
